# PMC10895674, “First-in-Class Dual EZH2-HSP90 Inhibitor Eliciting Striking Antiglioblastoma Activity In Vitro and In Vivo” (Journal of Medicinal Chemistry, 2024)
# Where two headings read alike, the source gives them in different places.
# Tests used:
# [1] = target: HSP90a (Homo sapiens, UniProt P07900); test: In vitro Hsp90 assay (Reaction Biology Corp.); assay type: biochemical; conditions: 10-dose IC50 mode, 3-fold serial dilution starting at 10 μM, single experiment; '-' read as no inhibition
# Description: The HSP90 inhibitory activity of the synthesized adduct was assessed by Reaction Biology Corporation Malvern, PA. (http://www.reactionbiology.com).
# [2] = system: mitochondria-derived ROS; test: MitoSOX assay; assay type: cell-based; conditions: Figure 10C
# Description: (§1) Thus, the ability of compound 7 to disturb redox homeostasis in TMZ-resistant cells and attain amplified therapeutic efficacy for GBM was evaluated. In both Pt3 and Pt3R cells, treatment with compound 7 for 48 h increased the ROS level (Figure 10A). […] Moreover, it was also observed that compound 7 increased mitochondria-derived ROS.
# (§2) Figure 10 Compound 7 triggers ROS production from mitochondria. (A) After treatment for 48 h, cells were stained with the DHR reagent, and the fluorescent signal was estimated by flow cytometry. Treatment concentration of compound 7 was indicated. (B) Protein lysates were subjected to Western blotting using the indicated antibody. (C) After staining with MitoSOX (red) and Hoechst 33342 (blue), cellular signals were photographed and quantified D. Protein lysates were subjected to Western blotting using the indicated antibody.
# (§3) Dihydrorhodamine 123 (DHR; Thermo Fisher Scientific, Waltham, MA) was used to label cellular ROS detected by the flow cytometry,[54] and the MitoSOX reagent (Thermo Fisher Scientific) was used to label mitochondrial ROS.[55]
# [3] = system: TMZ-resistant cells (Pt3R); test: Cell viability CCK8 assay; assay type: cell-based, human; conditions: Homo sapiens, 72 h, CCK8, read-out: IC50, cell growth inhibitory effects
# Source text: The CCK8 reagent was purchased from TargetMOI (Wellesley Hills, MA) and used according to the manufacturer’s instruction.
# [4] = system: Pt3R cells; test: Western blotting; assay type: cell-based, human
# Description: Furthermore, the impact of compound 7 treatment on centromere proteins (CENPs) was assessed. As such, CENPs are the main constituent proteins of the kinetochore, which are essential for cell division. CENPs expression is elevated in GBM tissues and correlated with unfavorable overall survival in glioma patients.[53]
# as §1
# The detailed procedure was described in our previous study.[54],[55],[58],[59] Primary antibodies, anti-CENPA, anti-CENPE, anti-CENPF, and anti-CENPI antibodies, were purchased from abcam (Cambridge, U.K.); anti-CDK1 and anticyclin B1 antibodies were purchased from Santa Cruz Biotechnology, Inc. (Dallas, TX); and anti-EZH2 and anti-H3K27^me3 antibodies were purchased from GeneTex International Corporation (HsinChu, Taiwan), anti-Caspase-3 was purchased from GeneTex International Corporation; anti-cleaved Caspase-3 was purchased from Cell Signaling Technology (Danvers, Massachusetts).
# [5] = Pharmacokinetics IV and PO; set-up: species or system Rat; conditions: in vivo
# Description: Table S1: Pharmacokinetic data of compound 7
# Rat IV (dose: 2 mg/kg) Rat PO (dose: 20 mg/kg)
# T1/2 CL Vss AUC(0-inf) T1/2 Cmax Tmax AUC(0-inf) F
# (hr) (ml/min/kg) (l/kg) (ng/mL*hr) (hr) (ng/ml) (hr) (ng/mL*hr) (%)
# Sample Time (hr) Avg. S.D.
# [6] = system: Pt3 cells; test: ROS assay (DHR, flow cytometry); assay type: cell-based, human; conditions: 48 h
# Description: as §2, §3
# [7] = system: Pt3R cells; test: ROS assay (DHR, flow cytometry); assay type: cell-based, human; conditions: 48 h
# Description: as §2, §3
# [8] = Rat IV 2 mg/kg, read-out: Drug Conc. Avg.
# [9] = Rat PO 20 mg/kg, read-out: Drug Conc. Avg.
compound,measurement,setting,value
"CCN(c1cc(-c2cccc(N(C)C(=O)c3cc(C(C)C)c(O)cc3O)c2)cc(C(=O)NCc2c(C)cc(C)[nH]c2=O)c1C)C1CCOCC1 [Compound 7, 3′-(2,4-Dihydroxy-5-isopropyl-N-methylbenzamido)-N-((4,6-dimethyl-2-oxo-1,2-dihydropyridin-3-yl)methyl)-5-(ethyl(tetrahydro-2H-pyran-4-yl)amino)-4-methyl-[1,1′-biphenyl]-3-carboxamide]",IC50,[1],60.1 nM
same,MitoSOX red signal representing ROS produced from mitochondria,[2],remarkably enhanced
same,IC50,[3],1010 ± 690 nM
same,EZH2 expression and EZH2-modulated H3K27 trimethylation,[4]; Figure 10B,inhibited
same,"proteins involved in cleaning ROS (catalase, SOD1, glutathione reductase, GPX1)",[4]; Figure 10B,decreased
same,expression of cleaved caspase-3,[4]; Figure 10D,upregulate
same,CENPs protein expression,[4]; Pt3R (Figure 8D),decreased
same,expression of CDK1 and cyclin B1,[4]; Pt3R (Figure 8D),downregulated
same,concentration at 0.03 hr,"[5]; Rat IV 2 mg/kg, 0.03 hr, read-out: Drug Conc. Avg.",2790 ng/mL
same,concentration at 0.08 hr,"[5]; Rat IV 2 mg/kg, 0.08 hr, read-out: Drug Conc. Avg.",929 ng/mL
same,concentration at 0.25 hr,[5]; [8],406 ng/mL
same,concentration at 0.5 hr,[5]; [8],218 ng/mL
same,concentration at 1 hr,[5]; [8],76.6 ng/mL
same,concentration at 2 hr,[5]; [8],30.5 ng/mL
same,concentration at 4 hr,[5]; [8],5 ng/mL
same,concentration at 6 hr,[5]; [8],1.1 ng/mL
same,AUC(0-inf),"[5]; Rat IV, dose 2 mg/kg",470 ± 32 ng·h/mL
same,clearance,"[5]; Rat IV, dose 2 mg/kg",81.8 ± 5.8 mL/min/kg
same,half-life,"[5]; Rat IV, dose 2 mg/kg",0.8 h
same,Vd,"[5]; Rat IV, dose 2 mg/kg, read-out: Vss",3 ± 0.5 L/kg
same,bioavailability,[5]; Rat PO 20 mg/kg vs IV 2 mg/kg,2.3%
same,concentration at 0.25 hr,[5]; [9],23 ng/mL
same,concentration at 0.5 hr,[5]; [9],11.1 ng/mL
same,concentration at 1 hr,[5]; [9],23.8 ng/mL
same,concentration at 2 hr,[5]; [9],15.3 ng/mL
same,concentration at 4 hr,[5]; [9],18.1 ng/mL
same,concentration at 6 hr,[5]; [9],4 ng/mL
same,concentration at 8 hr,"[5]; Rat PO 20 mg/kg, 8 hr, read-out: Drug Conc. Avg.",2.9 ng/mL
same,AUC(0-inf),"[5]; Rat PO, dose 20 mg/kg",106 ± 62 ng·h/mL
same,Cmax,"[5]; Rat PO, dose 20 mg/kg",23.8 ± 8.9 ng/mL
same,Tmax,"[5]; Rat PO, dose 20 mg/kg",1 h
same,half-life,"[5]; Rat PO, dose 20 mg/kg",1.8 ± 0.5 h
same,ROS level,[6],increased
same,ROS level,[7],increased
